Reference: patent US12678438B2, “Treatment of cancer with CDK inhibitors” (THE TRUSTEES OF THE UNIVERSITY OF PENNSYLVANIA, priority 2019, dated 2026)

Columns and labels:
[1] = system: MED1 and AR recruitment to the chromatin; test: ChIP-seq of genome-wide MED1 and AR binding; assay type: cell-based, human; settings: DHT-treated VCaP and LNCaP, THZ1
Description: ChIP was performed using iDeal ChIP-seq Kit for Transcription Factors (Diagenode, C01010170) according to manufacturer's protocol. In brief, the cells were crosslinked with 1% formaldehyde in culture medium for 10 min at room temperature. Cross-linking was terminated by the addition of 1/10 volume 1.25 M glycine for 5 min at room temperature followed by cell lysis and sonication (Bioruptor, Diagenode), resulting in an average chromatin fragment size of 200 bp. Chromatin equivalent to 5×10^6 cells was isolated and incubated with 10 μg antibody overnight at 4° C. (MED1, H3-acetyl K27, AR, and IgG (Diagenode). ChIP-seq libraries were prepared from the ChIP-enriched DNA samples using the TruSeq ChIP Library Preparation Kit (Illumina, IP-202-1012, IP-202-1024) and protocol. In brief, ChIP-enriched DNA (1-10 ng) was converted to blunt-ended fragments. A single A-base was added to fragment ends followed by ligation of Illumina adaptors. The adaptor-modified DNA fragments were enriched by PCR using the Illumina Barcode primers and Phusion DNA polymerase. PCR products were size selected using 3% NuSieve agarose gels (Lonza) followed by gel extraction using QIAEX II reagents (QIAGEN). Libraries were quantified with the Bioanalyzer 2100 (Agilent) and sequenced on the Illumina NextSeq 500 Sequencer (75 nucleotide read length).
Sequencing reads were quality checked with FASTQC (www.bioinformatics.babraham.ac.uk/projects/fastqc) and aligned to the GRCh37 (release 27) genome using the STAR v2.5.1 aligner with default settings. PCR duplicate reads in the aligned bam files were removed using samtools, bam files were converted to CPM normalized bigwig tracks using deeptools, and viewed using the Integrated Genomics Viewer or the UCSC genome browser. Single end reads were extended up to the fragment length (200 bp) along the read direction.
The enrichment peaks for the various transcription factors and histone marks were computed using MACS2, with default settings. Regions found to ubiquitously enriched across a number of next-generation sequencing experiments, also known as the blacklisted peaks (sites.google.com/site/anshulkundaje/projects/blacklists), were excluded in all subsequent analysis.

[2] = system: enzalutamide resistant PCa cell lines; test: Enzalutamide resistant PCa cells: immunoblot and colony formation; assay type: cell-based, human
Description: Prostate parental cell lines used in this study were obtained from ATCC, LNCaP-AR cells were a gift from Dr. Charles Sawyers (Memorial Sloan-Kettering Cancer Center, New York, NY), and LNCaP AR-KO cells were a gift from Dr. Dean Tang (Roswell Park Cancer Institute, Buffalo, NY). LNCaP, LNCaP-AR, 22RV1, LAPC4, DU145, PC3, and LNCaP AR-KO prostate cancer cell lines were grown in RPMI 1640 (Gibco, 11875093), and VCaP prostate cancer cell line was grown in DMEM with Glutamax (Gibco, 21013024). The medium was supplemented with 10% Fetal Bovine Serum (FBS) (HYC, SH30910.03) and 1% Penicillin Streptomycin Solution (Invitrogen, 15140122), hereto referred to as “complete media.” The immortalized benign prostate cell line RWPE-1 was grown in keratinocyte media with supplements (Thermo Fisher Scientific, 17005042). LNCaP-AR and VCaP enzalutamide-resistant cell lines were derived from enzalutamide-resistant PCa tumor xenograft as described previously. LNCaP and LAPC4 enzalutamide-resistant cell lines were generated by culturing the cells in presence of 20 μM enzalutamide for 3-4 months in vitro. Polyclonal pools of enzalutamide-resistant cells were cultured and maintained in media containing enzalutamide throughout. All experiments for enzalutamide resistant pools were done in presence of enzalutamide throughout the remainder of all experiments with these cells. The cell lines were tested negative for mycoplasma contamination and maintained in a humidified incubator at 37° C. and 5% CO2.
For the long-term colony formation assay, 10,000-50,000 cells/well in six-well plates (n=3) were seeded and treated with the required drugs/compounds or vehicle for 14 days. Media was refreshed every 4-5 days. Colonies were fixed and stained using 0.5% (w/v) crystal violet (Sigma, C0775) in 20% (v/v) methanol for 30 min, washed with distilled deionized water, and air-dried. To quantify staining, we washed the stained wells with 500 μL 10% acetic acid and using colorimetric assays determined the absorbance at 590 nm using a spectrophotometer (Synergy HT, BioTek Instruments, Vermont-USA).
Cell lysates were prepared with RIPA buffer (Boston Bioproducts, BP-115DG)-10 mM Tris-HCl pH 7.5, 1 mM EDTA, 400 mM NaCl, 0.5% NP-40 and 1 mM DTT, supplemented with protease inhibitor cocktail (Pierce, A32965) and phosphatase inhibitor (Thermo, 1861280). For immunoblotting 200 μg total protein extract was boiled in sample buffer and 15-25 μg aliquots were separated by SDS-PAGE and transferred onto Polyvinylidene Difluoride membrane (GE Healthcare, IPVH00010). The membrane was incubated for one hour in blocking buffer [Tris-buffered saline, 0.1% Tween (TBS-T), 5% nonfat dry milk followed by overnight incubation on a rocker at 4° C. with the primary antibody. […]

MED1-AR complex = test: Immunoprecipitation of endogenous MED1-AR complex; assay type: cell-based, human; settings: VCaP and LNCaP nuclear extracts, 100 nM THZ1, 6 h
Description: For endogenous immunoprecipitation experiments, nuclear extracts were obtained from VCaP and LNCaP cells using NE-PER nuclear extraction kit (Thermo Scientific, 78835). Nuclear pellet was then lysed in IP buffer (20 mM Tris pH7.5, 150 mM NaCl, 1% Triton-X 100, Protease/Phosphatase Inhibitor) by sonication. Nuclear lysates (0.35-1.0 mg) were pre-cleaned by incubation with protein G Dynabeads (Life Technologies) for 1 h on a rotator at 4° C. 5 μg antibody was added to the pre-cleared lysates and incubated on a rotator at 4° C. overnight. Protein G Dynabeads were then added for 1 h. Beads were washed twice in IP buffer, containing 300 mM NaCl, and resuspended in 40 μL of 2× loading buffer and boiled at 95° C. for […] for separation of the protein and beads. Samples were then analyzed by SDS-PAGE and western blotting as described above.

CDK7 = CDK7 (Homo sapiens, UniProt P50613); test: Luminescence-based CDK7 kinase activity on MED1 peptide; assay type: biochemical; settings: varying concentration of THZ1
Chain of CDK7 (P50613 whole entry): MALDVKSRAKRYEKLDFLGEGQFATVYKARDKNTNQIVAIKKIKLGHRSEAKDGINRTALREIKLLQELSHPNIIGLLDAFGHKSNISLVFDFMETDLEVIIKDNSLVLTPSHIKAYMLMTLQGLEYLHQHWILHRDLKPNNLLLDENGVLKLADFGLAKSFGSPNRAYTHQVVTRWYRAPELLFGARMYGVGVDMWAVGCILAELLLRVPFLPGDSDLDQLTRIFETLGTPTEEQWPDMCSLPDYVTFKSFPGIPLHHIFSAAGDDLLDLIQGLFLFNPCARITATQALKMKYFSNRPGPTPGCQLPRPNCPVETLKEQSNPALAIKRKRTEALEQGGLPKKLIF
Chain of CDK7 (P51946 whole entry partner): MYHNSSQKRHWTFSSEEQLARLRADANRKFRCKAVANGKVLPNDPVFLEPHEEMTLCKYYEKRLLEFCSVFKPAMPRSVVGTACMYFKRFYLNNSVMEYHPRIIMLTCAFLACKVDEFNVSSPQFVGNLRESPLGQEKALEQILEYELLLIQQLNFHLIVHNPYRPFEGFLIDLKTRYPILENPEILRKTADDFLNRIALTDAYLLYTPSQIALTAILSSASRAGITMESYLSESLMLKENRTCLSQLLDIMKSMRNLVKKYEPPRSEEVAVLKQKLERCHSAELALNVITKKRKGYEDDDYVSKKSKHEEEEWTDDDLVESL
Chain of CDK7 (P51948 whole entry partner): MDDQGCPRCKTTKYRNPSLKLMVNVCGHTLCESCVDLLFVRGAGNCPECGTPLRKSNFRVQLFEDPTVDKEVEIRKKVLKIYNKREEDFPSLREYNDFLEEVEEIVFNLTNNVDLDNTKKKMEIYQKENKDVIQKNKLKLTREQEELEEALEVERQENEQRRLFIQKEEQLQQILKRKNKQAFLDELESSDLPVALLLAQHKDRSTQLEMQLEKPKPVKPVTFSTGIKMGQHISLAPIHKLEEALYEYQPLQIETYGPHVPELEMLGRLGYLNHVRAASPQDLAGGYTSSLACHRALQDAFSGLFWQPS
Description: For luminescence-based CDK7 kinase activity analysis wild type MED1-peptide “[sequence]” and mutant MED1-peptide “[sequence]” (GenScript, U2051EC280_1, U2051EC280_3) were used. Following the above protocol, briefly after 60 min incubation, post addition of CAK complex, ADP-GLOW reagent (Promega, V6930) was thawed and 25 ul of the reagent was added to each well, the plate was covered with aluminum foil and incubated at room temperature (RT) for 45 min. After the incubation Kinase-Detection reagent (BPS Bioscience, 79603) was thawed and 50 ul of the reagent was added to each well and incubated for another 45 min at RT under dark conditions. After 45 min incubation luminescence was measured using the microplate reader (Note: in luminescence-based kinase assay, CAK-complex+CTD-peptide (BPS Bioscience)+ATP was used as a positive control, were as CAK complex+Human MED1 protein without ATP was used as a negative control to subtract the background readings).

[3] = target: CAK complex-CDK7/CyclinH/MAT1 (Homo sapiens, UniProt P50613); test: In vitro kinase assay, CAK complex with GST-MED1 protein, immunoblot; assay type: biochemical; settings: 60 min at 30° C.
Chain of CAK complex-CDK7/CyclinH/MAT1 (P50613 whole entry): as the sequence (P50613 whole entry) above
Chain of CAK complex-CDK7/CyclinH/MAT1 (P51946 whole entry partner): as the sequence (P51946 whole entry partner) above
Chain of CAK complex-CDK7/CyclinH/MAT1 (P51948 whole entry partner): as the sequence (P51948 whole entry partner) above
Description: The kinase assay was performed by preparing the master mixture of 3 ul (5×) kinase assay buffer, 0.5 ul of 500 uM ATP (BPS Bioscience, 79603), 1.25 ul (1 ug/ul) Human Recombinant GST-MED1 protein (Lifespan Biosciences, LS-G59680-25), and 7.75 ul of kinase assay grade water per reaction for the desired number of reactions. […] Additionally, kinase assay reaction mixtures containing no ATP and CDK7 were used as negative controls. Next, CAK complex-CDK7/CyclinH/MAT1 enzyme (BPS Bioscience) was thawed and diluted to (10 ng/111) in 1× kinase assay buffer. The reactions were initiated by adding 10 ul of diluted CAK complex to the designated wells and incubated at 30° C. for 60 min. After the incubation the reaction was stopped, and the mixture were analyzed through western blotting.

Which results are given for `CN(C)C/C=C/C(=O)Nc1ccc(C(=O)Nc2cccc(Nc3ncc(Cl)c(-c4c[nH]c5ccccc45)n3)c2)cc1` [THZ1]?
genome-wide AR recruitment (ChIP-seq) [1]: significantly limited AR recruitment; genome-wide MED1 recruitment (ChIP-seq) [1]: blocked MED1 recruitment entirely; PSA ([2]; 200 nM THZ1, 24 h): reduced PSA; apoptosis (cleaved PARP, cleaved caspase-3) ([2]; 200 nM THZ1, 24 h): increased apoptosis; p-MED1 ([2]; 200 nM THZ1, 24 h): loss of p-MED1; growth (colony formation) ([2]; enzalutamide plus 50 nM THZ1): growth inhibition; endogenous MED1-AR complex formation (MED1-AR complex): loss of endogenous MED1-AR complex formation; CDK7-mediated phosphorylation of the T1457 wildtype peptide (CDK7): inhibited by THZ1 treatment in a dose-dependent manner; Threonine phosphorylation of GST-MED1 (aa 1391-1490) at T1457 [3]: completely inhibited
